Measurements taken from patent publication US20260226128A1, “Capped Peptides and Methods for Using the Same” (The Board of Trustees of the Leland Stanford Junior …, priority 2023, published 2026).

Test system: diet induced obese mice
Test: Food intake 2 hours post injection of CAP-GDF15 human homologue
Type: in vivo, mouse
Settings: 50 mg/kg, single injection, versus vehicle
Protocol: FIG. 12. Human CAP-GDF15 homologue inhibits food intake. Food intake of diet induced obese mice 2 hours post injection with vehicle or 50 mg/kg CAP-GDF15 human homologue (pGlu-[…]-NH2). (N=8 mice/group, error bars are SEM, and P values calculated with two-sided Student's T test.)
Human CAP-GDF15 treatments in mice. Singly housed diet induced obese (on high fat diet, 4 months old, male, C57BL/6J, Jackson cat #380050) mice were injected with vehicle (18:1:1 Saline: DMSO: Kolliphor EL) or 50 mg/kg CAP-GDF15 human homologue (pGlu-[…]-NH2) once at ~5 μm. Food weight was measured before injection and 2 hours post to calculated food intake. (N=8 mice/group)

pGlu-LELHLRPQAAR-NH2 (HELM PEPTIDE1{[Glp].L.E.L.H.L.R.P.Q.A.A.R.[am]}$$$$V2.0; SMILES CC(C)C[C@H](NC(=O)[C@@H]1CCC(=O)N1)C(=O)N[C@@H](CCC(=O)O)C(=O)N[C@@H](CC(C)C)C(=O)N[C@@H](Cc1c[nH]cn1)C(=O)N[C@@H](CC(C)C)C(=O)N[C@@H](CCCNC(=N)N)C(=O)N1CCC[C@H]1C(=O)N[C@@H](CCC(N)=O)C(=O)N[C@@H](C)C(=O)N[C@@H](C)C(=O)N[C@@H](CCCNC(=N)N)C(N)=O) [human homologue of CAP-GDF15]
food intake 2 hours post injection: acutely inhibits food intake
